# Test results published in the CheMixHub viscosity set.
# “And” between values parts separate entries of the source, which are not always exact repeats. Equal entries are not always repeated. ± gives the uncertainty stated by the source.
# Experiment: xn = mol fraction of the nth substance listed
smiles,measurement,setting,value
C1COCCO1 + O,viscosity,"303.15 K, 101.3 kPa, x2 = 0.2053",1.163 ± 0.019 mPa·s
same,viscosity,"303.15 K, 101.3 kPa, x2 = 0.3758",1.322 ± 0.021 mPa·s and 1.321 ± 0.021 mPa·s
same,viscosity,"303.15 K, 101.3 kPa, x2 = 0.7952",1.738 ± 0.028 mPa·s
same,viscosity,"303.15 K, 101.3 kPa, x2 = 0.8661",1.58 ± 0.025 mPa·s and 1.579 ± 0.025 mPa·s
same,viscosity,"303.15 K, 101.3 kPa, x2 = 0.9391",1.221 ± 0.02 mPa·s
same,viscosity,"303.15 K, 101.3 kPa, x2 = 0.9742",0.9855 ± 0.016 mPa·s and 0.9853 ± 0.016 mPa·s
same,viscosity,"303.15 K, 101.33 kPa, x1 = 0.0222",0.959 ± 0.0096 mPa·s
same,viscosity,"303.15 K, 101.33 kPa, x1 = 0.0486",1.137 ± 0.011 mPa·s
same,viscosity,"303.15 K, 101.33 kPa, x1 = 0.0806",1.332 ± 0.013 mPa·s
same,viscosity,"303.15 K, 101.33 kPa, x1 = 0.12",1.521 ± 0.015 mPa·s
same,viscosity,"303.15 K, 101.33 kPa, x1 = 0.143",1.608 ± 0.016 mPa·s
same,viscosity,"303.15 K, 101.33 kPa, x1 = 0.17",1.674 ± 0.017 mPa·s
same,viscosity,"303.15 K, 101.33 kPa, x1 = 0.2",1.726 ± 0.017 mPa·s
same,viscosity,"303.15 K, 101.33 kPa, x1 = 0.235",1.75 ± 0.017 mPa·s
same,viscosity,"303.15 K, 101.33 kPa, x1 = 0.25",1.749 ± 0.017 mPa·s
same,viscosity,"303.15 K, 101.33 kPa, x1 = 0.275",1.74 ± 0.017 mPa·s
same,viscosity,"303.15 K, 101.33 kPa, x1 = 0.323",1.704 ± 0.017 mPa·s
same,viscosity,"303.15 K, 101.33 kPa, x1 = 0.334",1.685 ± 0.017 mPa·s
same,viscosity,"303.15 K, 101.33 kPa, x1 = 0.38",1.634 ± 0.016 mPa·s
same,viscosity,"303.15 K, 101.33 kPa, x1 = 0.45",1.538 ± 0.015 mPa·s
same,viscosity,"303.15 K, 101.33 kPa, x1 = 0.5",1.46 ± 0.015 mPa·s
same,viscosity,"303.15 K, 101.33 kPa, x1 = 0.537",1.417 ± 0.014 mPa·s
same,viscosity,"303.15 K, 101.33 kPa, x1 = 0.648",1.282 ± 0.013 mPa·s
same,viscosity,"303.15 K, 101.33 kPa, x1 = 0.716",1.215 ± 0.012 mPa·s
same,viscosity,"303.15 K, 101.33 kPa, x1 = 0.795",1.153 ± 0.012 mPa·s
same,viscosity,"303.15 K, 101.33 kPa, x1 = 0.846",1.125 ± 0.011 mPa·s
same,viscosity,"303.15 K, 101.33 kPa, x1 = 0.918",1.098 ± 0.011 mPa·s
same,viscosity,"308.15 K, 101.33 kPa, x1 = 0.0222",0.859 ± 0.0086 mPa·s
same,viscosity,"308.15 K, 101.33 kPa, x1 = 0.0486",1.014 ± 0.01 mPa·s
same,viscosity,"308.15 K, 101.33 kPa, x1 = 0.0806",1.184 ± 0.012 mPa·s
same,viscosity,"308.15 K, 101.33 kPa, x1 = 0.12",1.349 ± 0.013 mPa·s
same,viscosity,"308.15 K, 101.33 kPa, x1 = 0.143",1.419 ± 0.014 mPa·s
same,viscosity,"308.15 K, 101.33 kPa, x1 = 0.17",1.479 ± 0.015 mPa·s
same,viscosity,"308.15 K, 101.33 kPa, x1 = 0.2",1.525 ± 0.015 mPa·s
same,viscosity,"308.15 K, 101.33 kPa, x1 = 0.235",1.549 ± 0.015 mPa·s
same,viscosity,"308.15 K, 101.33 kPa, x1 = 0.25",1.553 ± 0.016 mPa·s
same,viscosity,"308.15 K, 101.33 kPa, x1 = 0.275",1.546 ± 0.015 mPa·s
same,viscosity,"308.15 K, 101.33 kPa, x1 = 0.323",1.518 ± 0.015 mPa·s
same,viscosity,"308.15 K, 101.33 kPa, x1 = 0.334",1.503 ± 0.015 mPa·s
same,viscosity,"308.15 K, 101.33 kPa, x1 = 0.38",1.46 ± 0.015 mPa·s
same,viscosity,"308.15 K, 101.33 kPa, x1 = 0.45",1.38 ± 0.014 mPa·s
same,viscosity,"308.15 K, 101.33 kPa, x1 = 0.5",1.317 ± 0.013 mPa·s
same,viscosity,"308.15 K, 101.33 kPa, x1 = 0.537",1.282 ± 0.013 mPa·s
same,viscosity,"308.15 K, 101.33 kPa, x1 = 0.648",1.17 ± 0.012 mPa·s
same,viscosity,"308.15 K, 101.33 kPa, x1 = 0.716",1.112 ± 0.011 mPa·s
same,viscosity,"308.15 K, 101.33 kPa, x1 = 0.795",1.06 ± 0.011 mPa·s
same,viscosity,"308.15 K, 101.33 kPa, x1 = 0.846",1.036 ± 0.01 mPa·s
same,viscosity,"308.15 K, 101.33 kPa, x1 = 0.918",1.017 ± 0.01 mPa·s
same,viscosity,"313.1 K, 101 kPa, x2 = 0.228",0.97 ± 0.015 mPa·s
same,viscosity,"313.1 K, 101 kPa, x2 = 0.2741",0.989 ± 0.015 mPa·s
same,viscosity,"313.1 K, 101 kPa, x2 = 0.4187",1.047 ± 0.016 mPa·s
same,viscosity,"313.1 K, 101 kPa, x2 = 0.7038",1.368 ± 0.02 mPa·s
same,viscosity,"313.1 K, 101 kPa, x2 = 0.8099",1.376 ± 0.02 mPa·s
same,viscosity,"313.1 K, 101 kPa, x2 = 0.8346",1.32 ± 0.02 mPa·s
same,viscosity,"313.1 K, 101 kPa, x2 = 0.8791",1.229 ± 0.018 mPa·s
same,viscosity,"313.1 K, 101 kPa, x2 = 0.9194",1.083 ± 0.017 mPa·s
same,viscosity,"313.1 K, 101 kPa, x2 = 0.9508",0.937 ± 0.015 mPa·s
same,viscosity,"313.1 K, 101 kPa, x2 = 0.9786",0.786 ± 0.013 mPa·s
same,viscosity,"313.15 K, 101.3 kPa, x2 = 0.0459",0.9391 ± 0.015 mPa·s
same,viscosity,"313.15 K, 101.3 kPa, x2 = 0.09407",0.9443 ± 0.015 mPa·s
same,viscosity,"313.15 K, 101.3 kPa, x2 = 0.2053",0.9839 ± 0.016 mPa·s
same,viscosity,"313.15 K, 101.3 kPa, x2 = 0.3758",1.1 ± 0.018 mPa·s
same,viscosity,"313.15 K, 101.3 kPa, x2 = 0.7952",1.377 ± 0.022 mPa·s
same,viscosity,"313.15 K, 101.33 kPa, x1 = 0.0222",0.776 ± 0.0078 mPa·s
same,viscosity,"313.15 K, 101.33 kPa, x1 = 0.0486",0.914 ± 0.0091 mPa·s
same,viscosity,"313.15 K, 101.33 kPa, x1 = 0.0806",1.061 ± 0.011 mPa·s
same,viscosity,"313.15 K, 101.33 kPa, x1 = 0.12",1.199 ± 0.012 mPa·s
same,viscosity,"313.15 K, 101.33 kPa, x1 = 0.143",1.265 ± 0.013 mPa·s
same,viscosity,"313.15 K, 101.33 kPa, x1 = 0.17",1.322 ± 0.013 mPa·s
same,viscosity,"313.15 K, 101.33 kPa, x1 = 0.2",1.365 ± 0.014 mPa·s
same,viscosity,"313.15 K, 101.33 kPa, x1 = 0.235",1.386 ± 0.014 mPa·s
same,viscosity,"313.15 K, 101.33 kPa, x1 = 0.25",1.383 ± 0.014 mPa·s
same,viscosity,"313.15 K, 101.33 kPa, x1 = 0.275",1.384 ± 0.014 mPa·s
same,viscosity,"313.15 K, 101.33 kPa, x1 = 0.323",1.366 ± 0.014 mPa·s
same,viscosity,"313.15 K, 101.33 kPa, x1 = 0.334",1.352 ± 0.014 mPa·s
same,viscosity,"313.15 K, 101.33 kPa, x1 = 0.38",1.316 ± 0.013 mPa·s
same,viscosity,"313.15 K, 101.33 kPa, x1 = 0.45",1.249 ± 0.012 mPa·s
same,viscosity,"323.1 K, 101 kPa, x2 = 0.228",0.836 ± 0.013 mPa·s
same,viscosity,"323.1 K, 101 kPa, x2 = 0.2741",0.85 ± 0.013 mPa·s
same,viscosity,"323.1 K, 101 kPa, x2 = 0.4187",0.888 ± 0.014 mPa·s
same,viscosity,"323.1 K, 101 kPa, x2 = 0.591",1.063 ± 0.016 mPa·s
same,viscosity,"323.1 K, 101 kPa, x2 = 0.7038",1.123 ± 0.017 mPa·s
same,viscosity,"323.1 K, 101 kPa, x2 = 0.8099",1.122 ± 0.017 mPa·s
same,viscosity,"323.1 K, 101 kPa, x2 = 0.8346",1.078 ± 0.016 mPa·s
same,viscosity,"323.1 K, 101 kPa, x2 = 0.8791",1.006 ± 0.015 mPa·s
same,viscosity,"323.1 K, 101 kPa, x2 = 0.9194",0.889 ± 0.014 mPa·s
same,viscosity,"323.1 K, 101 kPa, x2 = 0.9508",0.774 ± 0.013 mPa·s
same,viscosity,"323.1 K, 101 kPa, x2 = 0.9786",0.652 ± 0.011 mPa·s
